Patent US11377441B2, “Covalent inhibitors of KRAS” (Araxes Pharma LLC, priority 2017, dated 2022)

Each molecule was assayed against T1, KRAS G12C 1-169, his-tagged protein, GDP-loaded (Homo sapiens, UniProt P01116, G12C) (assay: Biochemical assay: covalent modification of KRAS G12C measured by mass spectrometry (RapidFire/TOF or Q-Exactive)). Conditions: covalent binding to (modification of) KRAS G12C after a ten minute incubation period.
T1 construct: KRAS G12C 1-169, his-tagged protein, GDP-loaded
Format: binding
Method: Test compounds were prepared as 10 mM stock solutions in DMSO (Fisher cat #BP-231-100). KRAS G12C 1-169, his-tagged protein, GDP-loaded is diluted to 2 μM or 0.5 μM in buffer (20 mM Hepes, 150 mM NaCl, 1 mM MgCl2). Compounds were tested for activity as follows:
Compounds were diluted to 50× final test concentration in DMSO in 96-well storage plates. Compound stock solutions were vortexed before use and observed carefully for any sign of precipitation. Dilutions are as follow: • For 100 μM final compound concentration, compounds were diluted to 5000 μM (5 μL 10 mM compound stock+5 μL DMSO and mixed well by pipetting. • For 30 μM final compound concentration, compounds were diluted to 1500 μM (3 μL 10 mM compound stock+17 μL DMSO) and mixed well by pipetting. • For 10 μM final compound concentration, compounds were diluted to 500 μM (2 μL 10 mM compound stock+38 μL DMSO) and mixed well by pipetting. 49 μL of the stock protein solution was added to each well of a 96-well PCR plate (Fisher cat #1423027). 1 μL of the diluted 50× compounds were added to appropriate wells in the PCR plate using 12-channel pipettor. Reactions were mixed carefully and thoroughly by pipetting up/down with a 200 μL multi-channel pipettor. The plate was sealed well with aluminum plate seal, and stored in drawer at room temperature for 10 minutes, 30 minutes, 2 hours or 24 hours. 5 μL of 2% formic acid (Fisher cat #A117) in de-ionized H2O was then added to each well followed by mixing with a pipette. The plate was then resealed with aluminum seal and stored on dry ice until analyzed as described below.
The above described assays were analyzed by mass spectrometry according to one of the following two procedures:
The MS instrument was set to positive polarity, 2 GHz resolution, and low mass (1700) mode and allowed to equilibrate for 30 minutes. The instrument was then calibrated, switched to acquisition mode and the appropriate method loaded.
After another 30 minute equilibration time, a blank batch (i.e., buffer) was run to ensure equipment is operating properly. The samples were thawed at 37° C. for 10 minutes, briefly centrifuged, and transfer to the bench top. Wells A1 and H12 were spiked with 1 μL 500 μM internal standard peptide, and the plates centrifuged at 2000×g for 5 minutes. The method was then run and masses of each individual well recorded.
The masses (for which integration data is desired) for each well were pasted into the platemap and exported from the analysis. Masses for the internal standards were exported as well. The data at 50 ppm was extracted for the +19 charge state, and identity of well A1 was assigned using the internal standard spike and integrated. Peak data was exported as a TOF list and the above steps were repeated individually, for the +20, 21, 22, 23, 24, and 25 charge states.
The masses and peak intensities of KRAS G12C protein species were measured using a Dionex RSLCnano system (Thermo Scientific) connected to a Q Exactive Plus mass spectrometer (Thermo Scientific).
[…] of sample was each loaded onto a Aeris™ 3.6 μm WIDEPORE C4 200 Å, LC Column 50×2.1 mm column maintained at 40° C. at a flow rate of 600 μL/min with 20% Solvent A (0.1% formic acid in H2O) and […] (0.1% formic acid in acetonitrile). The liquid chromatography conditions were 20% solvent B for 1 minute, 20% to 60% solvent B for 1.5 minutes, 60% to 90% solvent for 0.5 minute, 90% solvent B for 0.2 minute, 90% to 20% solvent B for 0.2 minute, and then equilibrated for 1.6 minutes before the following sample injection. The flow rate was maintained at 600 μL/min throughout the sample analysis.
The mass spectrometer was operated in profile mode at a resolution of 17500, 5 microscans, using 50 msec max injection time and an AGC target of 1×10^6, and a full mass range from 800-1850 m/z was recorded. The HCD trapping gas was optimized for maximum sensitivity for intact proteins. […]
“1-((2R,5S)-4-(6- chloro-7-(1,6- dimethyl-1H- benzo[d][1,2,3]triazol- 7-yl)-2-(3- (dimethylamino)azetidin- 1-yl)-8- flurooquinazolin-4- yl)-2,5- dimethylpiperazin-1- yl)prop-2-en-1-one [Compound 137]” was tested, and the Binding % was “+ (+ indicates binding activity greater than 0% and up to 50%)”.
For `C=CC(=O)N1C[C@H](C)N(c2nc(N3CC(N(C)C)C3)nc3c(F)c(-c4c(C)ccc5[nH]nc(N)c45)c(Cl)cc23)C[C@H]1C` (atropisomer, axis not shown) [Compound 35, 1-((2R,5S)-4-((R)-7-(3-amino-5-methyl-1H-indazol-4-yl)-6-chloro-2-(3-(dimethylamino)azetidin-1-yl)-8-fluoroquinazolin-4-yl)-2,5-dimethylpiperazin-1-yl)prop-2-en-1-one], the Binding % was “+++ (+++ indicates binding activity greater than 80%)”.
`C=CC(=O)N1CCN(c2nc(N3CC(N(C)C)C3)nc3c(F)c(-c4c(C)ccc5[nH]nc(N)c45)c(Cl)cc23)CC1` (atropisomer, axis not shown) [Compound 37, (R)-1-(4-(7-(3-amino-5-methyl-1H-indazol-4-yl)-6-chloro-2-(3-(dimethylamino)azetidin-1-yl)-8-fluoroquinazolin-4-yl)piperazin-1-yl)prop-2-en-1-one] was tested, and the Binding % was “+++ (+++ indicates binding activity greater than 80%)”.
For `C=CC(=O)N1CCN(c2nc(N3CC(N(C)C)C3)nc3c(F)c(-c4c(C)ccc5[nH]nc(N)c45)c(Cl)cc23)CC1` (atropisomer, axis not shown) [Compound 38, (S)-1-(4-(7-(3-amino-5-methyl-1H-indazol-4-yl)-6-chloro-2-(3-(dimethylamino)azetidin-1-yl)-8-fluoroquinazolin-4-yl)piperazin-1-yl)prop-2-en-1-one], the Binding % was “+ (+ indicates binding activity greater than 0% and up to 50%)”.
For `C=CC(=O)N1C[C@H](C)N(c2nc(OCCN3CCCC3)nc3c(F)c(-c4c(C)ccc5[nH]nc(N)c45)c(Cl)cc23)C[C@H]1C` (atropisomer, axis not shown) [Compound 53, 1-((2R,5S)-4-((S)-7-(3-amino-5-methyl-1H-indazol-4-yl)-6-chloro-8-fluoro-2-(2-(pyrrolidin-1-yl)ethoxy)quinazolin-4-yl)-2,5-dimethylpiperazin-1-yl)prop-2-en-1-one], the Binding % was “+ (+ indicates binding activity greater than 0% and up to 50%)”.
With `C=CC(=O)N1C[C@H](C)N(c2nc(OCCN3CCOCC3)nc3c(F)c(-c4c(C)ccc5[nH]nc(N)c45)c(Cl)cc23)C[C@H]1C` (atropisomer, axis not shown) [Compound 58, 1-((2R,5S)-4-((S)-7-(3-amino-5-methyl-1H-indazol-4-yl)-6-chloro-8-fluoro-2-(2-morpholinoethoxy)quina-zolin-4-yl)-2,5-dimethylpiperazin-1-yl)prop-2-en-1-one] the Binding % was “+ (+ indicates binding activity greater than 0% and up to 50%)”.
In the case of `C=CC(=O)N1C[C@H](C)N(c2nc(OCCN3CCOCC3)nc3c(F)c(-c4c(C)ccc5[nH]nc(N)c45)c(Cl)cc23)C[C@H]1C` (atropisomer, axis not shown) [Compound 59, 1-((2R,5S)-4-((R)-7-(3-amino-5-methyl-1H-indazol-4-yl)-6-chloro-8-fluoro-2-(2-morpholinoethoxy)quina-zolin-4-yl)-2,5-dimethylpiperazin-1-yl)prop-2-en-1-one], the Binding % is reported as “+++ (+++ indicates binding activity greater than 80%)”.
In the case of `C=CC(=O)N1C[C@H](C)N(c2nc(OCCN3CCC(F)(F)C3)nc3c(F)c(-c4c(C)ccc5[nH]nc(N)c45)c(Cl)cc23)C[C@H]1C` (atropisomer, axis not shown) [Compound 66, 1-((2R,5S)-4-((S)-7-(3-amino-5-methyl-1H-indazol-4-yl)-6-chloro-2-(2-(3,3-difluoropyrrolidin-1-yl)ethoxy)-8-fluoroquinazolin-4-yl)-2,5-dimethylpiperazin-1-y)prop-2-en-1-one], the Binding % is reported as “+ (+ indicates binding activity greater than 0% and up to 50%)”.
In the case of `C=CC(=O)N1C[C@H](C)N(c2nc(OCCN3CCC(F)(F)C3)nc3c(F)c(-c4c(C)ccc5[nH]nc(N)c45)c(Cl)cc23)C[C@H]1C` (atropisomer, axis not shown) [Compound 67, 1-((2R,5S)-4-((R)-7-(3-amino-5-methyl-1H-indazol-4-yl)-6-chloro-2-(2-(3,3-difluoropyrrolidin-1-yl)ethoxy)-8-fluoroquinazolin-4-yl)-2,5-dimethylpiperazin-1-yl)prop-2-en-1-one], the Binding % is reported as “+++ (+++ indicates binding activity greater than 80%)”.
`C=CC(=O)N1C[C@H](C)N(c2nc(N3CC(N(C)C)C3)nc3c(F)c(-c4c(C)ccc5[nH]nc(C6CC6)c45)c(Cl)cc23)C[C@H]1C` (atropisomer, axis not shown) [Compound 75, 1-((2R,5S)-4-((S)-6-chloro-7-(3-cyclopropyl-5-methyl-1H-indazol-4-yl)-2-(3-(dimethylamino)azetidin-1-yl)-8-fluoroquinazolin-4-yl)-2,5-dimethylpiperazin-1-yl)prop-2-en-1-one] was tested, and the Binding % was “+ (+ indicates binding activity greater than 0% and up to 50%)”.
In the case of `C=CC(=O)N1C[C@H](C)N(c2nc(N3CC(N(C)C)C3)nc3c(F)c(-c4c(C)ccc5[nH]nc(C6CC6)c45)c(Cl)cc23)C[C@H]1C` (atropisomer, axis not shown) [Compound 76, 1-((2R,5S)-4-((R)-6-chloro-7-(3-cyclopropyl-5-methyl-1H-indazol-4-yl)-2-(3-(dimethylamino)azetidin-1-yl)-8-fluoroquinazolin-4-yl)-2,5-dimethylpiperazin-1-yl)prop-2-en-1-one], the Binding % is reported as “+++ (+++ indicates binding activity greater than 80%)”.
For `C=CC(=O)N1C[C@H](C)N(c2nc(OCCN3CC(F)(F)C3)nc3c(F)c(-c4c(C)ccc5[nH]nc(N)c45)c(Cl)cc23)C[C@H]1C` (atropisomer, axis not shown) [Compound 83, 1-((2R,5S)-4-((S)-7-(3-amino-5-methyl-1H-indazol-4-yl)-6-chloro-2-(2-(3,3-difluoroazetidin-1-yl)ethoxy)-8-fluoroquinazolin-4-yl)-2,5-dimethylpiperazin-1-yl)prop-2-en-1-one], the Binding % was “+ (+ indicates binding activity greater than 0% and up to 50%)”.
For `C=CC(=O)N1C[C@H](C)N(c2nc(OCCN3CC(F)(F)C3)nc3c(F)c(-c4c(C)ccc5[nH]nc(N)c45)c(Cl)cc23)C[C@H]1C` (atropisomer, axis not shown) [Compound 84, 1-((2R,5S)-4-((R)-7-(3-amino-5-methyl-1H-indazol-4-yl)-6-chloro-2-(2-(3,3-difluoroazetidin-1-yl)ethoxy)-8-fluoroquinazolin-4-yl)-2,5-dimethylpiperazin-1-yl)prop-2-en-1-one], the Binding % was “+++ (+++ indicates binding activity greater than 80%)”.
In the case of `C=CC(=O)N1C[C@H](C)N(c2nc(N3CC(N(C)C)C3)nc3c(F)c(-c4c(C)ccc5cnn(C)c45)c(Cl)cc23)C[C@H]1C` (atropisomer, axis not shown) [Compound 87, 1-((2R,5S)-4-((R)-6-chloro-7-(1,6-dimethyl-1H-indazol-7-yl)-2-(3-(dimethylamino)azetidin-1-yl)-8-fluoroquinazolin-4-yl)-2,5-dimethylpiperazin-1-yl)prop-2-en-1-one], the Binding % is reported as “+++ (+++ indicates binding activity greater than 80%)”.
